What was measured:
arterial pressure = experiment: Hypotensing action: arterial pressure after injection in femoral artery; type: in vivo; conditions: anethtized beagle dog, 0.02-10 μg/kg
Method: In a femoral artery of anethtized beagle dog, each of the VIP analogues as Test Samples was injected in a dose of 0.02-10 μg/kg and measured an arterial pressure to prepare a chart showing a relation between the dose and change in blood pressure and check an amount of dose which shall cause a reduction of 15 mmHg in blood pressure.

PCA reaction = experiment: Anti-allergic action: passive cutaneous anaphylaxis test (PCA reaction); type: in vivo; conditions: rat, injected into a vein
Method: A rat was immunized with egg-albumin suspended in aluminum hydroxide gel in a conventional manner and a blood letting was carried out to obtain immune serum rich in IgE.
A male rat was anethtized with ether and hairs on back were sheared to intradenally inject by 0.1 ml of the immune serum solution described in Item (1) and diluted to 5-folds, at both sides with a certain distance from a medial line on the back. After 72 hours, a mixed solution of egg albumin (5 mg/kg), 2% Evans blue and a test compound ([L-Leu^17 ]-VIP-Hse or pure native VIP) or disodium cromoglycate was injected into a vein. After 30 minutes from an occasion of PCA reaction, the experimental animal was killed and pealed-off the skin to obtain a piece of the skin dyed with the coloring matter.
The coloring matter was extracted in accordance with the method described by Katayama ["Microbio. Immunol.", Vol. 22, No. 2, pages 89 (1978)] and an amount thereof was measured at 620 nm in wave length to calculate an inhibition of the PCA reaction.

| Compound | amount of dose causing a reduction of 15 mmHg in blood pressure, relative value (native VIP = 100%) (arterial pressure) [%] | Inhibition (%) of the PCA reaction (PCA reaction; dose 0.01 mg/kg) [%] | Inhibition (%) of the PCA reaction (PCA reaction; dose 0.1 mg/kg) [%] | Inhibition (%) of the PCA reaction (PCA reaction; dose 1.0 mg/kg) [%] |
| --- | --- | --- | --- | --- |
| [L-Leu^17 ]-VIP-Hse-NH(CH2)9 CH3 [[L-Leu^17]-VIP-NH(CH2)9 CH3] | 68 |  |  |  |
| O=C([O-])c1cc(=O)c2c(OCC(O)COc3cccc4oc(C(=O)[O-])cc(=O)c34)cccc2o1.[Na+].[Na+] [Disodium cromoglycate] |  | 5 | 28 | 31 |
| CC[C@H](C)[C@H](NC(=O)[C@H](CO)NC(=O)[C@H](CC(N)=O)NC(=O)[C@H](CC(C)C)NC(=O)[C@H](Cc1ccc(O)cc1)NC(=O)[C@H](CCCCN)NC(=O)[C@H](CCCCN)NC(=O)[C@@H](NC(=O)[C@H](C)NC(=O)[C@H](CCSC)NC(=O)[C@H](CCC(N)=O)NC(=O)[C@H](CCCCN)NC(=O)[C@H](CCCNC(=N)N)NC(=O)[C@H](CC(C)C)NC(=O)[C@H](CCCNC(=N)N)NC(=O)[C@@H](NC(=O)[C@H](Cc1ccc(O)cc1)NC(=O)[C@H](CC(N)=O)NC(=O)[C@H](CC(=O)O)NC(=O)[C@@H](NC(=O)[C@H](Cc1ccccc1)NC(=O)[C@@H](NC(=O)[C@H](C)NC(=O)[C@H](CC(=O)O)NC(=O)[C@H](CO)NC(=O)[C@@H](N)Cc1c[nH]cn1)C(C)C)[C@@H](C)O)[C@@H](C)O)C(C)C)C(=O)N[C@@H](CC(C)C)C(=O)N[C@@H](CC(N)=O)C(N)=O [Native VIP, vasoactive intestinal polypeptide] | 100 | 23 | 72 | 67 |
